In patent US7880021B2, “Compounds and kits for the detection and the quantification of cell apoptosis” (Centre National de la Recherche Scientifique (CNRS), priority 2005, dated 2011):

Experiments:
[1] = test system: CEM T cells; experiment: Two-color confocal ratiometric imaging of normal and apoptotic cells; format: cell-based, human
Procedure: FIG. 5: Confocal fluorescence ratiometric images of CEM cells stained with F2N12S: normal cells (a); apoptotic cells, obtained by FITC-annexin based sorting of cells treated with actinomycin (b); and actinomycin-treated without cell sorting (c). The images were recorded after a 10 min incubation of the probe with the cells. Scale bar, 10 μm.
Human lymphoid CEM T cells were cultured in X-vivo 15 medium (Cambrex, France) at 37° C. in humidified 5% CO2 atmosphere. Cell viability was checked by trypan blue exclusion. Cells were seeded at 5×10^5 cells/ml in the presence or absence of actinomycin D (0.5 μg/ml) for 18 h. Cells were pelleted by centrifugation at 1500 rpm for 5 min and resuspended at 1×10^6 cells/ml in X-vivo 15 medium for experiments.
(§1) The cells were washed twice by HBSS before each experiment to eliminate fetal bovine serum. In sorting experiments, cells were resuspended in the binding buffer and labeled with the annexin V-FITC kit. For fluorescence measurements with the probe of the invention F2N12S (fluorometry, flow cytometry and confocal microscopy), cells were resuspended in HBSS with 0.1 μM F2N12S. Then, the cell suspension was placed in a shaker bath for 10 min in the incubator. The staining pattern of the cells was checked with a Confocal Imaging System MRC-1024 (BioRad) to ascertain that fluorescence originates from the plasma membrane.
(§2) For collecting cell images, a Laser Scanning Confocal Imaging System MRC-1024 (Bio-Rad) was used. Cells in chambered cover glass were prepared by following the preparation procedure described above. The 442 nm line of a HeCd laser was used as the excitation light source. Emission was collected by using two filters: 485/30 for the N* band and 585LP for the T* band. Collected images were analyzed by the Amira 3.0 software.
Two-color confocal fluorescence microscopy of CEM T cells stained with F2N12S was performed. Emission light was collected in two spectral regions: at 470-500 nm to monitor the emission of the N* band and above 585 nm to collect the emission of the T* band. Ratiometric images were obtained by dividing the intensity of the T* band by the intensity of the N* band and were used to monitor the cell plasma membrane changes induced by addition of actinomycin D (FIG. 5, a-c).

[2] = test system: T lymphocytes; experiment: Laser scanning confocal ratiometric imaging of T lymphocytes; format: cell-based
Procedure: FIG. 9: Laser scanning confocal imaging of T lymphocytes stained with annexin V-FITC (a) and F2N12S (b and c). Combination of transmission and fluorescence images of cells treated with actinomycin D for 18 hours (please complete this sentence). […] Due to their low binding to annexin V, normal cells are not visualized in the fluorescence images. (b and c) Ratiometric images of normal (b) and actinomycin D-treated (c) cells stained with 0.2 μM F2N12S. […] The size of the images is 60×73.1 μm.
FIG. 10: Time-series of confocal fluorescence ratiometric images of actinomycin D-treated T lymphocytes stained with F2N12S. The cells were treated with actinomycin D for 18 hours and then, incubated with the probe (0.2 μM) for 5 min. Images were recorded at 1 min (a), 10 min (b) and 20 min (c) post incubation. […] The size of the images is 60×73.1 μm.
as §2
To further compare F2N12S and annexinV-derived probes, two-color ratiometric images of F2N12S-labeled cells undergoing apoptosis were recorded by laser scanning confocal microscopy and compared with intensity based images obtained using annexin V-FITC. […] Moreover, the fluorescence intensity of apoptotic cells varies considerably from cell to cell. These differences are difficult to interpret since the intensity depends on the probe concentration as well as on the size and confluence of the cells. […] According to our spectroscopy and flow cytometry data, the latter cells are apoptotic. […] Thus, unlike annexin V-FITC, these probes provide an absolute parameter, the intensity ratio, which can be calibrated, and can characterize the level of apoptosis independently of the probe/cell concentration and the excitation light intensity. In addition, the inventors have observed that in normal cells and cells on the initial steps of apoptosis, the T*/N* intensity ratio is not evenly distributed within the plasma membrane of a given cell. This may indicate an inhomogeneous lipid composition of their plasma membranes that is likely related to the presence of lipid domains.
The inventors also follow apoptotic transformation of the plasma membrane as a function of time. Normal and actinomycin D-treated cells were stained with the corresponding probe and the fluorescence images were subsequently recorded during 20 min. […]

[3] = test system: 3T3 fibroblasts; experiment: Flow cytometry F2N12S intensity ratio in 3T3 fibroblasts; format: cell-based; details: data not shown
Source text: The probe of the invention F2N12S has been combined with PI and the fluorescence intensities of PI have been represented as a function of the T*/N* ratio of F2N12S (FIG. 6c). In this case, the populations of apoptotic and dead cells are clearly discriminated by using the differences in the PI intensities. […] This conclusion was further strengthened when the populations discriminated by the F2N12S/PI couple were colored according to their response with the annexin V-FITC/PI couple (FIG. 6d).

[4] = test system: human lymphoid cell line CEM T; experiment: Toxicity test by flow cytometry using PI; format: cell-based; details: 1 μM F2N12S; 0.5, 1 and 4 hours incubation
Procedure: The toxicity of the F2N12S molecules was tested by flow cytometry using PI (19 μM). Cells were washed twice as described above and separated in nine batches: three batches for control measurements, three batches with 10^-7 M F2N12S and three batches with 10^-6 M F2N12S. The batches were incubated for 0.5 hour, 1 hour and 4 hours, respectively. The 488 nm line of an argon laser was used as the excitation light source. Emission was collected by using the 630FD22 filter.
Next, the cytotoxicity of the newly synthesized probe, F2N12S, was evaluated on the human lymphoid cell line CEM T. F2N12S was added at 0.1 μM (working concentration) and 1 μM and, incubated for different times (0.5, 1 and 4 hours).

[5] = test system: L 929 cells; experiment: Confocal fluorescence imaging of L 929 cells stained with 3-HF probes; format: cell-based
Procedure: FIG. 1: (a) Formula and location of 3-HF probes of the prior art F and F2N8 and of the probe of the invention F2N12S in phospholipid bilayers (a). Confocal fluorescence images of L 929 cells stained with probes F (b), F2N8 (c) and F2N12S (d). All images were obtained by collecting fluorescence in the 585-700 nm wavelength range 10 min after probe addition. Scale bar, 10 μm (b).
as §1
For collecting cell images, a Laser Scanning Confocal Imaging System MRC-1024 (Bio-Rad) was used. […] Collected images were analyzed by the Amira 3.0 software.
Confocal laser microscopy have been performed on adherent L 929 cells stained with these first generation molecules (FIG. 1.b, c). The obtained fluorescence images reveal a rapid penetration of these dyes inside the cells. […]

[6] = actinomycin D-treated cells not sorted by cytometry

Substance: 1-dodecanaminium, N-[[2-[4-Diethylaminophenyl]-3-hydroxychromon-6-yl]-methyl]-N-methyl-N-(3-sulfopropyl)-, inner salt [F2N12S]
- fluorescence intensity ratio T*/N*, apoptotic cells [1, 6]: ~0.25
- fluorescence intensity ratio T*/N*, living cells [1, 6]: ~1
- fluorescence intensity ratio T*/N* at the plasma membrane ([1]; apoptotic cells obtained by cell sorting, average): around 0.25
- change in the T*/N* ratio, non-treated versus apoptotic cells ([1]; confocal imaging): 4 fold
- fluorescence intensity ratio T*/N* at the plasma membrane ([1]; non-treated cells, N* 470-500 nm, T* above 585 nm): ~1
- time-dependent change of the fluorescence images ([2]; actinomycin D-treated cells, images recorded during 20 min): relatively fast change in the emission color
- which cells are stained in fluorescence images ([2]; normal and actinomycin D-treated cells): stains both normal (FIG. 9b) and apoptotic cells (FIG. 9c) but in different colors
- F2N12S intensity ratio values compared with T lymphoblastoid cells [3]: very similar
- percentage of dead cells [4]: ≤ 4%
- time the probes stay in the plasma membrane (whole observation time) ([5]; L 929 cells in HBSS buffer, limited by lifetime of the cells): approx. 1 hour
- location of probe fluorescence in stained cells ([5]; adherent L 929 cells, images 10 min after probe addition, 585-700 nm): emission exclusively from the plasma membranes
